Tests used:
Assay type in all cases: cell-based, human
iDCs and mDCs = test: Fatty acid screen: fatty acids added back to HMM OVA, nAFP or tAFP; conditions: for CD206 expression at the iDC stage / inhibition of CD206 expression, mDC: FA combined with tAFP; for CD206 expression compared to controls: FA+HMM tAFP
Procedure: Fatty acids were resuspended in ethanol and stored at −20° C. at 100 uM.

iDCs = test: Fatty acid screen: fatty acids titrated onto iDCs without OVA, nAFP or tAFP; conditions: for lactate production: relative to control cells, 16:0 at 5-20 μM in b86
Excerpt: We developed an in vitro assay to screen specific FAs that are necessary for tAFP-mediated suppression of DC formation (FIG. 6A). Many of the FAs screened have known roles in promoting (Weatherill, A. R. et al. Saturated and Polyunsaturated Fatty Acids Reciprocally Modulate Dendritic Cell Functions Mediated through TLR4. J Immunol. 174, 5390-5397 (2005); Lancaster, G. I. et al. Evidence that TLR4 Is Not a Receptor for Saturated Fatty Acids but Mediates Lipid-Induced Inflammation by Reprogramming Macrophage Metabolism. Cell Metab. 27, 1096-1110.e5 (2018)) or limiting DC differentiation (Zeyda, M. et al. Polyunsaturated Fatty Acids Block Dendritic Cell Activation and Function Independently of NF-κB Activation. J Biol. Chem. 280, 14293-14301 (2005)). Therefore, to determine their necessity for tAFP-mediated DC suppression, we titrated several FAs unique to tAFP (20:3 N6, 20:5, and 22:5 N3), and other PUFAs to determine the concentration they lost their inherent ability to suppress DC differentiation in the absence of OVA, nAFP, or tAFP (FIG. 6A). […] All three PUFAs at high concentrations inhibited CD206 expression on DCs (Zeyda. M. et al. Polyunsaturated Fatty Acids Block Dendritic Cell Activation and Function Independently of NF-κB Activation. J Biol. Chem. 280, 14293-14301 (2005)), at levels equivalent to or greater than tAFP treatment.
Fatty acids were resuspended in ethanol and stored at −20° C. at 100 uM. […] Both the native preparations and HMM fractions contained similar amounts of protein (˜0.5 mg/mL), whereas protein was undetectable ([…]) in the low molar mass (LMM) fraction. […] Fats (+/−HMM) were added to pre-warmed media and incubated for 1 hour, mixing at 37° C. before adding to cells (Alsabeeh, N., Chausse, B., Kakimoto, P. A., Kowaltowski, A. J. & Shirihai, O. Cell Culture Models of Fatty Acid Overload: Problems and Solutions. Biochim. Biophys. Acta 1863, 143-151 (2018)). Fats were combined with HMM at a 3:1 molar ratio, as previously described (Alsabeeh, N., Chausse, B., Kakimoto, P. A., Kowaltowski, A. J. & Shirihai. O. Cell Culture Models of Fatty Acid Overload: Problems and Solutions. Biochim. Biophys. Acta 1863, 143-151 (2018)).

mDCs generated in vitro = test: scMEP single-cell metabolic regulome profiling by CyTOF
Procedure: scMEP analysis was performed as recently described (Hartmann et al., 2021). In short, antibodies targeting metabolic features were conjugated in-house using an optimized conjugation protocol (Hartmann et al., 2019) and validated on multiple sample types. Cells were prepared for scMEP analysis by incubation with small molecules to be able to assess biosynthesis rates of DNA, RNA and protein, cisplatin-based live/dead staining, PFA-based cell fixation and cryopreservation (dx.doi.org/10.17504/protocols.io.bkwkkxcw). Next, cells were stained with metabolic antibodies in a procedure that includes surface staining for 30 min at RT, PFA-fixation for 10 min at RT, MeOH-based permeabilization for 10 min on ice, intracellular staining for 1 h at RT and DNA intercalation (dx.doi.org/10.17504/protocols.io.bntnmeme). Finally, cells were acquired on a CyTOF2 mass cytometer (Fluidigm). Protein targets and antibody information used in scMEP are listed in supplementary table 2. Raw mass spectrometry data were pre-processed, de-barcoded and imported into R environment using the flowCore package (version 2.0.1) (Hahne et al., 2009). Values were arcsin h transformed (cofactor 5) and normalized (Hartmann et al., 2021) for downstream analyses based on previously reported workflow (Nowicka et al., 2017).

[1] = system: monocyte-derived dendritic cells (DCs); test: SCENITH single-cell energetic metabolism profiling of treated DCs; conditions: DC
Excerpt: (§1) DCs were differentiated in vitro similarly as previously described (Pardee, A. D., Shi, J. & Butterfield, L. H. Tumor-Derived α-Fetoprotein Impairs the Differentiation and T Cell Stimulatory Activity of Human Dendritic Cells. J Immunol. 193, 5723-5732 (2014)). In brief, cryopreserved PBMC were thawed and CD14*monocytes were magnetically labeled using CD14 MicroBeads (Miltenyi, Cat #130-050-201) and isolated by LS columns (Miltenyi, Cat #130-042-401) per the manufacturer instructions. Viable eluted cells were enumerated using trypan blue on a Nexcelom Cellometer Spectrum. To generate iDCs, monocytes were stimulated for 5 days in the presence of 800 IU/mL of rGM-CSF (Miltenyi, Cat #130-093-862) and 500 IU/mL of rIL-4 (Miltenyi, Cat #130-095-373) as well as OVA, nAFP, or tAFP in CellGenix® GMP DC media (Cat #20801-0500) 37° C. at 5% CO2. Lastly, we performed an additional 24-hour stimulation with 1000 IU/mL of rIFN-γ (Peprotech, Cat #300-02) and 250 ng/mL of LPS (Sigma Aldrich, Cat #L2630-10MG) to produce mDCs. To harvest cells, DC were detached using TrypLE™ Select (Gibco, Cat #12563011) for 15 minutes at 37° C. and then washed several times with cold PBS.
SCENITH was performed as described in (Arguello et al., 2020). SCENITH™ reagents kit (inhibitors, puromycin and antibodies) were obtained from www.scenith.com/try-it and used according to the provided protocol for in-vitro derived myeloid cells. Briefly, control and tol-moDC cultures at desired timepoints, were treated for 18 minutes with Control (DMSO), 2-Deoxy-Glucose (2-DG; 100 mM), Oligomycin (0; 1 μM), a combination of 2DG and Oligomycin (DGO) or Harringtonine (H; 2 μg/mL). Following metabolic inhibitors, Puromycin (final concentration 10 μg/mL) was added to cultures for 17 min. After puromycin treatment, cells were detached from wells using TypLE Select (Fisher Scientific, 505914419), washed in cold PBS and stained with a combination of Human TureStain FcX (Biolegend, 422301) and fluorescent cell viability dye (Biolegend, 423105) for 10 min 4° C. in PBS. Following PBS wash step, primary antibodies against surface markers were incubated for 25 min at 4° C. in Brilliant Stain Buffer (BD Biosciences, 563794). Next cells were fixed and permeabilized using True-Nuclear Transcription Factor Buffer Set (Biolegend, 424401) as per manufacturer instructions. Intracellular staining of puromycin and protein targets was performed for 1 h in diluted (10×) permeabilization buffer at 4° C. Finally, data acquisition was performed using the Cytek Aurora flow cytometer. Primary conjugated antibody information used in SCENITH panel is listed in supplementary table 1. All antibodies were titrated to reduce spillover and increase resolution using single stained moDC (generated as described above) samples. Unstained cell controls used for autofluorescence extraction were generated for each time point, culture conditions (control, vitd3-tol-moDC and dexa-vitd3-tol-moDC) and metabolic inhibitor treatments (C, 2DG, O, DGO). Samples were unmixed using reference controls generated in combination with stained Ultracomp beads (Fisher Scientific, 01-2222-41) and stained cells using the SpectroFlo Software v2.2.0.1. The unmixed FCS files were used for data processing and analysis using FlowJo (BD, version 10.7.1). Manually gated CD14-HLA-DR*CD86+ cells were used for downstream analysis. gMFI expression values were imported into R environment for correlation and heatmap analysis using the below described R packages.

[2] = system: monocyte-derived dendritic cells (DCs); test: Glucose and lactate measurements in DC cultures; conditions: DC
Excerpt: as §1
Glucose and lactate were measured by applying approximately 5 μL of supernatant to Clarity BG1000 Blood Glucose strips (Cat #75840-798) and meter (Cat #75840-800) system or the Lactate Plus strips (Nova Biomedical©, Cat #40813) and meter version 2 (Nova Biomedical©, Cat #62624) system. Each meter was quality checked with control glucose and lactate solutions and CellGenix™ media before each experiment.

CCCCC/C=C\C/C=C\C/C=C\C/C=C\CCCC(=O)O [20:4, arachidonic acid]
CD206 expression at the iDC stage (iDCs and mDCs): immunoregulatory activity | inhibition of CD206 expression, mDC (iDCs and mDCs): ~-15% | CD206 expression compared to controls (iDCs and mDCs): significantly reduced

CCCCC/C=C\C/C=C\C/C=C\C/C=C\CCCCCC(=O)O [22:4, adrenic acid]
inhibition of CD206 expression, mDC (iDCs and mDCs): ~-15%

CCCCC/C=C\C/C=C\C/C=C\CCCCCCC(=O)O [20:3 N6, dihomo-γ-linolenic acid]
CD206 expression at the iDC stage (iDCs and mDCs): immunoregulatory activity | inhibition of CD206 expression, mDC (iDCs and mDCs): ~-15% | CD206 expression compared to controls (iDCs and mDCs): significantly reduced

CCCCCCCCCCCCCCCC(=O)O [16:0, palmitic acid]
ox-phos (iDCs): can promote | CD206 expression on DCs (iDCs; fatty acid alone): increase | DC differentiation (iDCs; fatty acid alone): tended to promote | lactate production (iDCs; fatty acid alone): tended to decrease | lactate production (iDCs; fatty acid alone, listed as palmitic acid): decrease

B1: palmitic acid-bound AFP: alpha fetoprotein non-covalently bound to palmitic acid (protein, UniProt P02771 19-609, looked up)
Alpha-fetoprotein: RTLHRNEYGIASILDSYQCTAEISLADLATIFFAQFVQEATYKEVSKMVKDALTAIEKPTGDEQSSGCLENQLPAFLEELCHEKEILEKYGHSDCCSQSEEGRHNCFLAHKKPTPASIPLFQVPEPVTSCEAYEEDRETFMNKFIYEIARRHPFLYAPTILLWAARYDKIIPSCCKAENAVECFQTKAATVTKELRESSLLNQHACAVMKNFGTRTFQAITVTKLSQKFTKVNFTEIQKLVLDVAHVHEHCCRGDVLDCLQDGEKIMSYICSQQDTLSNKITECCKLTTLERGQCIIHAENDEKPEGLSPNLNRFLGDRDFNQFSSGEKNIFLASFVHEYSRRHPQLAVSVILRVAKGYQELLEKCFQTENPLECQDKGEEELQKYIQESQALAKRSCGLFQKLGEYYLQNAFLVAYTKKAPQLTSSELMAITRKMAATAATCCQLSEDKLLACGEGAADIIIGHLCIRHEMTPVNPGVGQCCTSSYANRRPCFSSLVVDETYVPPAFSDDKFIFHKDLCQAQGVALQTMKQEFLINLVKQKPQITEEQLEAVIADFSGLLEKCCQGQEQEVCFAEEGQKLISKTRAALGV
modifications: non-covalently bound palmitic acid
CD206 expression in dendritic cells (iDCs and mDCs; fatty acid-bound AFP): increased | lactate secretion in dendritic cells (iDCs and mDCs; fatty acid-bound AFP): decreased

B2: nAFP: cord blood-derived normal alpha fetoprotein; commercially available (Cell Sciences) (protein, UniProt P02771 19-609, looked up)
Alpha-fetoprotein: RTLHRNEYGIASILDSYQCTAEISLADLATIFFAQFVQEATYKEVSKMVKDALTAIEKPTGDEQSSGCLENQLPAFLEELCHEKEILEKYGHSDCCSQSEEGRHNCFLAHKKPTPASIPLFQVPEPVTSCEAYEEDRETFMNKFIYEIARRHPFLYAPTILLWAARYDKIIPSCCKAENAVECFQTKAATVTKELRESSLLNQHACAVMKNFGTRTFQAITVTKLSQKFTKVNFTEIQKLVLDVAHVHEHCCRGDVLDCLQDGEKIMSYICSQQDTLSNKITECCKLTTLERGQCIIHAENDEKPEGLSPNLNRFLGDRDFNQFSSGEKNIFLASFVHEYSRRHPQLAVSVILRVAKGYQELLEKCFQTENPLECQDKGEEELQKYIQESQALAKRSCGLFQKLGEYYLQNAFLVAYTKKAPQLTSSELMAITRKMAATAATCCQLSEDKLLACGEGAADIIIGHLCIRHEMTPVNPGVGQCCTSSYANRRPCFSSLVVDETYVPPAFSDDKFIFHKDLCQAQGVALQTMKQEFLINLVKQKPQITEEQLEAVIADFSGLLEKCCQGQEQEVCFAEEGQKLISKTRAALGV
levels of cytochrome C (CytC) (mDCs generated in vitro): elevated | FAO [1]: similarly reduces | glucose dependent metabolism [1]: modestly increases | glucose uptake [2]: modestly increases
